ChEMBL document CHEMBL1201862, “PubChem BioAssay data set” (2004)
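In this assay, cells in 96-well plates receive the compound at five concentrations for 48 hours. Endpoints are linearly interpolated between the surrounding concentrations. Abbreviation: GI50, concentration required for 50% inhibition of growth.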 Active and inactive are the calls of the source. Rule as the data show it: active = GI50 up to about 1.1 µM and inactive = higher.

Experiments:
Experiment in all cases: DTP human tumour cell line panel, 48 h
TK-10 = system: TK-10
HL-60 = system: HL-60
SR = system: SR
K562 = system: K562
CAKI-1 = system: CAKI-1
MDA-N = system: MDA-N
A549 = system: A549
RPMI-8226 = system: RPMI-8226
HCC 2998 = system: HCC 2998
RXF 393 = system: RXF 393
DU-145 = system: DU-145
Hs-578T = system: Hs-578T
SW-620 = system: SW-620
NCI-H522 = system: NCI-H522
SK-MEL-2 = system: SK-MEL-2
OVCAR-4 = system: OVCAR-4
EKVX = system: EKVX
NCI-H460 = system: NCI-H460
IGROV-1 = system: IGROV-1
HOP-62 = system: HOP-62
SK-MEL-5 = system: SK-MEL-5
BT-549 = system: BT-549
ACHN = system: ACHN
OVCAR-5 = system: OVCAR-5
SNB-19 = system: SNB-19
LOX IMVI = system: LOX IMVI
SK-MEL-28 = system: SK-MEL-28
HCT-15 = system: HCT-15
HOP-92 = system: HOP-92
T47D = system: T47D
NCI-H23 = system: NCI-H23
SN12C = system: SN12C
CCRF-CEM = system: CCRF-CEM
MOLT-4 = system: MOLT-4
U-251 = system: U-251
M14 = system: M14
NCI-H226 = system: NCI-H226
HT-29 = system: HT-29
MCF7 = system: MCF7
SF-539 = system: SF-539
OVCAR-8 = system: OVCAR-8
KM12 = system: KM12
Malme-3M = system: Malme-3M
SNB-75 = system: SNB-75
COLO 205 = system: COLO 205
SF-295 = system: SF-295
PC-3 = system: PC-3
UACC-257 = system: UACC-257
HCT-116 = system: HCT-116
UACC-62 = system: UACC-62
NCI/ADR-RES = system: NCI/ADR-RES
786-0 = system: 786-0
MDA-MB-435 = system: MDA-MB-435
OVCAR-3 = system: OVCAR-3
SF-268 = system: SF-268
A498 = system: A498
UO-31 = system: UO-31
MDA-MB-231 = system: MDA-MB-231
SK-OV-3 = system: SK-OV-3

Measured: GI50

OC1[C@H](O)CN(OCc2ccccc2)C[C@@H]1O (stereo partly drawn)
inactive: TK-10 > 100 µM | HL-60 > 100 µM | SR > 100 µM | K562 > 100 µM | CAKI-1 > 100 µM | MDA-N > 100 µM | A549 > 100 µM | RPMI-8226 > 100 µM | HCC 2998 > 100 µM | RXF 393 > 100 µM | DU-145 > 100 µM | Hs-578T > 100 µM | SW-620 > 100 µM | NCI-H522 > 100 µM | SK-MEL-2 > 100 µM | OVCAR-4 > 100 µM | EKVX > 100 µM | NCI-H460 > 100 µM | IGROV-1 > 100 µM | HOP-62 > 100 µM | SK-MEL-5 > 100 µM | BT-549 > 100 µM | ACHN > 100 µM | OVCAR-5 > 100 µM | SNB-19 > 100 µM | LOX IMVI > 100 µM | SK-MEL-28 > 100 µM | HOP-92 > 100 µM | T47D > 100 µM | NCI-H23 > 100 µM | SN12C > 100 µM | CCRF-CEM > 100 µM | MOLT-4 > 100 µM | U-251 > 100 µM | M14 > 100 µM | NCI-H226 > 100 µM | HT-29 > 100 µM | MCF7 > 100 µM | SF-539 > 100 µM | OVCAR-8 > 100 µM | KM12 > 100 µM | Malme-3M > 100 µM | SNB-75 > 100 µM | COLO 205 > 100 µM | SF-295 > 100 µM | PC-3 > 100 µM | UACC-257 > 100 µM | HCT-116 > 100 µM | UACC-62 > 100 µM | NCI/ADR-RES > 100 µM | 786-0 > 100 µM | MDA-MB-435 > 100 µM | OVCAR-3 > 100 µM | SF-268 > 100 µM | A498 > 100 µM | UO-31 > 100 µM | MDA-MB-231 > 100 µM
> 100 µM: HCT-15

CN(CCCNC(=O)c1nn(-c2ccccc2)c2c1Cc1ccccc1-2)CCCNC(=O)c1nn(-c2ccccc2)c2c1Cc1ccccc1-2
active: HL-60 0.603 µM | SR 0.191 µM | K562 0.55 µM | OVCAR-4 0.929 µM | CCRF-CEM 1 µM | MOLT-4 1.12 µM | M14 1.05 µM
1.64 µM: HCT-15
inactive: TK-10 1.74 µM | CAKI-1 1.38 µM | MDA-N 1.5 µM | A549 1.66 µM | RPMI-8226 1.72 µM | HCC 2998 1.42 µM | RXF 393 1.75 µM | DU-145 1.7 µM | Hs-578T 1.25 µM | SW-620 1.31 µM | NCI-H522 1.35 µM | SK-MEL-2 1.69 µM | EKVX 1.83 µM | NCI-H460 1.66 µM | IGROV-1 1.51 µM | HOP-62 1.58 µM | SK-MEL-5 1.57 µM | BT-549 1.56 µM | ACHN 1.73 µM | OVCAR-5 1.75 µM | SNB-19 1.61 µM | SK-OV-3 1.72 µM | LOX IMVI 1.51 µM | SK-MEL-28 1.59 µM | HOP-92 1.57 µM | T47D 1.92 µM | NCI-H23 1.57 µM | SN12C 1.76 µM | U-251 1.7 µM | HT-29 1.73 µM | MCF7 1.63 µM | SF-539 1.59 µM | OVCAR-8 1.73 µM | KM12 1.9 µM | Malme-3M 1.5 µM | SNB-75 1.36 µM | COLO 205 1.45 µM | SF-295 1.84 µM | PC-3 1.69 µM | UACC-257 1.72 µM | HCT-116 1.65 µM | UACC-62 1.77 µM | NCI/ADR-RES 1.63 µM | 786-0 1.65 µM | MDA-MB-435 1.23 µM | OVCAR-3 1.71 µM | SF-268 1.63 µM | A498 1.69 µM | UO-31 1.61 µM | MDA-MB-231 1.76 µM

CC(=O)C1=C(C)N(c2ccccc2)C2(O)C3=C(C(=O)c4ccccc4C3=O)C(O)=CC12Cl (stereo not drawn)
active: RPMI-8226 0.855 µM | CCRF-CEM 0.65 µM
3.73 µM: HCT-15
inactive: TK-10 14.4 µM | HL-60 2.9 µM | SR 2.42 µM | K562 6.04 µM | CAKI-1 4.05 µM | MDA-N 2.94 µM | A549 7.29 µM | HCC 2998 4.63 µM | RXF 393 5.85 µM | DU-145 11.2 µM | Hs-578T 4.01 µM | SW-620 3.89 µM | NCI-H522 2.55 µM | SK-MEL-2 5.07 µM | OVCAR-4 3.08 µM | EKVX 8.51 µM | NCI-H460 5.26 µM | IGROV-1 2.71 µM | HOP-62 17.2 µM | SK-MEL-5 2.91 µM | BT-549 8.11 µM | ACHN 5.11 µM | OVCAR-5 20 µM | SNB-19 5.36 µM | SK-OV-3 49.7 µM | LOX IMVI 3.56 µM | SK-MEL-28 6.73 µM | HOP-92 7.08 µM | T47D 35.2 µM | NCI-H23 6.55 µM | SN12C 4.46 µM | MOLT-4 3.13 µM | U-251 4.76 µM | M14 7.03 µM | NCI-H226 21.4 µM | HT-29 3.1 µM | MCF7 3.61 µM | SF-539 4.09 µM | OVCAR-8 4.08 µM | KM12 4.17 µM | Malme-3M 1.88 µM | SNB-75 4.28 µM | COLO 205 5.21 µM | SF-295 11.1 µM | PC-3 7.28 µM | UACC-257 4.71 µM | HCT-116 5.96 µM | UACC-62 13 µM | NCI/ADR-RES 3.73 µM | 786-0 4.63 µM | MDA-MB-435 2.32 µM | OVCAR-3 4.2 µM | SF-268 6.73 µM | A498 13 µM | UO-31 5.07 µM | MDA-MB-231 10.7 µM

Cc1ccc2c(O)c3c(cc2c1)C(=O)c1c2c(cc(O)c1C3=O)C1(C)OC(O2)C(O)C(N(C)C)C1O (stereo not drawn)
0.614 µM: HCT-15
active: HL-60 0.155 µM | SR 0.0452 µM | K562 0.167 µM | CAKI-1 0.794 µM | A549 0.719 µM | RPMI-8226 0.29 µM | DU-145 0.767 µM | Hs-578T 1.02 µM | SW-620 1.02 µM | NCI-H460 0.109 µM | IGROV-1 0.912 µM | HOP-62 1.01 µM | ACHN 0.605 µM | SK-OV-3 1.09 µM | LOX IMVI 1.11 µM | HOP-92 1.01 µM | T47D 0.656 µM | CCRF-CEM 0.154 µM | MOLT-4 0.124 µM | HT-29 0.495 µM | MCF7 0.287 µM | SF-539 1.11 µM | KM12 0.59 µM | SNB-75 1.04 µM | COLO 205 0.91 µM | SF-295 1.09 µM | PC-3 1.05 µM | HCT-116 0.296 µM | UACC-62 1.07 µM | 786-0 0.617 µM | OVCAR-3 0.794 µM
inactive: TK-10 1.69 µM | MDA-N 1.63 µM | HCC 2998 1.19 µM | RXF 393 1.21 µM | NCI-H522 1.22 µM | SK-MEL-2 1.85 µM | OVCAR-4 1.56 µM | EKVX 1.32 µM | SK-MEL-5 1.22 µM | BT-549 1.49 µM | OVCAR-5 1.97 µM | SNB-19 1.17 µM | SK-MEL-28 1.32 µM | NCI-H23 1.26 µM | SN12C 1.37 µM | U-251 1.16 µM | M14 1.56 µM | NCI-H226 1.15 µM | OVCAR-8 1.19 µM | UACC-257 1.51 µM | NCI/ADR-RES 1.4 µM | MDA-MB-435 1.39 µM | SF-268 3.65 µM | A498 1.28 µM | UO-31 1.27 µM | MDA-MB-231 1.33 µM
